The results in this text go back to ChEMBL document CHEMBL1158392, “Synthesis and biological evaluation of abietic acid derivatives” (Eur J Med Chem, 2009).

Values after ≈ are worked out from the molar mass of the structure shown. Active and inactive are the calls of the source. The rule behind the calls is not given here.

In one data set the test system is Candida parapsilosis. Briefly: Antifungal activity against Candida parapsilosis ATCC 22019 upto 100 ug/mL after 24 hrs by AFST-EUCAST method. Format: functional, organism-based.
The next data set relates to Pichia kudriavzevii. Briefly: Antifungal activity against Candida krusei ATCC 6258 upto 100 ug/mL after 24 hrs by AFST-EUCAST method. The data set is classed as functional, organism-based.
The test system of the next data set is Candida tropicalis. Kind of data set: Antifungal activity against Candida tropicalis CECT 11901 upto 100 ug/mL after 24 hrs by AFST-EUCAST method. Format: functional, organism-based.
The test system of a further data set is Candida albicans. Kind of data set: Antifungal activity against Candida albicans ATCC 10231 upto 100 ug/mL after 24 hrs by AFST-EUCAST method. Format: functional, organism-based.
Another data set deals with Aspergillus flavus. Briefly: Antifungal activity against Aspergillus flavus ATCC 204304 upto 100 ug/mL after 48 hrs by CLSI M38-A broth dilution method. Format: functional, organism-based. On the technique in general: In broth dilution the organism is exposed to a series of concentrations in liquid medium.
For data set [1], the system named is Aspergillus fumigatus. Briefly: Antifungal activity against Aspergillus fumigatus ATCC 204305 upto 100 ug/mL after 48 hrs by CLSI M38-A broth dilution method. Format: functional, organism-based.
The next data set deals with Aspergillus terreus. Briefly: Antifungal activity against Aspergillus terreus CDC 317 upto 100 ug/mL after 48 hrs by CLSI M38-A broth dilution method. Format: functional, organism-based.
The next data set concerns Aspergillus niger. Kind of data set: Antifungal activity against Aspergillus niger ATCC 10124 upto 100 ug/mL after 48 hrs by CLSI M38-A broth dilution method. The data set is classed as functional, organism-based.
Data set [2] has as its system HeLa. Kind of data set: Cytotoxicity against human HeLa cells after 48 hrs by MTT assay. Format: functional. (Tetrazolium assays rely on reduction of a dye to a coloured formazan, in cell work by metabolically active cells.)
A short description of data set [3]: Cytotoxicity against african green monkey Vero cells after 48 hrs by MTT assay. Format: cell-based. Conditions: chlorocebus sabaeus.
Data set [4] in a line: Selectivity index, ratio of CC50 for african green monkey Vero cells to CC50 for human HeLa cells. Format: functional.
Data set [5] relates to HeLa. Kind of data set: Cytotoxicity against human HeLa cells. Format: cell-based.
Data set [6] relates to Human alphaherpesvirus 1. Kind of data set: Antiviral activity against HSV1 infected in human HeLa cells assessed as viral reduction factor preincubated for 0.5 hrs before infection measured after 36 hrs by end point titration technique relative to control. Format: functional.
Data set [7] relates to Human alphaherpesvirus 1. Kind of data set: Antiviral activity against HSV1 infected in human HeLa cells assessed as maximum dose required for highest viral reduction factor preincubated for 0.5 hrs before infection measured after 36 hrs by end point titration technique. The data set is classed as functional.
In data set [8] the test system is Aspergillus fumigatus. Kind of data set: Antifungal activity against Aspergillus fumigatus ATCC 204305 after 48 hrs by CLSI M38-A broth dilution method. Conditions: ATCC 204305, 48 h. The data set is classed as functional.

The MIC is the least concentration at which growth counts as inhibited. A word on the CC50: it is the concentration at which the toxic effect on the cells reaches its halfway point. Take `COC(=O)[C@]1(C)CCC[C@]2(C)C3=C(CC[C@@H]12)CC(=C(C)C)CC3`: the MIC entry with Candida parapsilosis, with Pichia kudriavzevii, in the data set with Candida tropicalis, in the data set on Candida albicans, in the data set on Aspergillus flavus and in the data set with Aspergillus fumigatus [1] was “inactive” each time. For the same compound, the MIC result in the data set with Aspergillus terreus and in the data set with Aspergillus niger was “inactive” in each case. This compound registered a cytotoxic concentration (CC50) with HeLa [2] of 46.6 µg/mL (≈ 147 µM). The compound also displayed a half-maximal cytotoxic concentration (CC50) at 48 h in data set [3] of 19.2 µg/mL (≈ 60.7 µM). In addition, the “Selectivity Index” value in [4] is given as 0.4. In the data set with HeLa [5], this compound showed a CC100 of 100 µg/mL. Moreover, the outcome in the data set on Human alphaherpesvirus 1 [6] was inactive.
Take `CC(C)C1=CC2=CC[C@H]3[C@](C)(CO)CCC[C@]3(C)[C@H]2CC1`: the MIC entry with Candida parapsilosis, with Pichia kudriavzevii, in the data set on Candida tropicalis, in the data set on Candida albicans, in the data set on Aspergillus flavus and in the data set on Aspergillus fumigatus [1] was “inactive” in each case. Moreover, the MIC entry in the data set on Aspergillus terreus and in the data set on Aspergillus niger was “inactive” each time. In the data set with HeLa [2], half-maximal cytotoxicity (CC50) was put at 5.2 µg/mL (≈ 18 µM). The compound also showed a CC50 at 48 h in data set [3] of 12.7 µg/mL (≈ 44 µM). Besides, the “Selectivity Index” value in [4] is 2.4. Further, the CC100 with HeLa [5] worked out at 25 µg/mL. Further, the Activity with Human alphaherpesvirus 1 [6] came to 10; with Human alphaherpesvirus 1 [7], 6.25 µg/mL.
Compound `CC(C)C1=CC2=CC[C@@H]3[C@](C)(CCC[C@@]3(C)C=O)[C@H]2CC1` showed an MIC in the data set on Aspergillus fumigatus [8] of 50 µg/mL (≈ 175 µM). In addition, the MIC entry with Candida parapsilosis, with Pichia kudriavzevii, in the data set on Candida tropicalis, in the data set with Candida albicans, in the data set on Aspergillus flavus and in the data set with Aspergillus terreus was “inactive” each time. The MIC entry with Aspergillus niger was “inactive”. Also, the CC50 in the data set with HeLa [2] is 5.6 µg/mL (≈ 19.5 µM). This compound also came in with a CC50 at 48 h in data set [3] of 31.5 µg/mL (≈ 110 µM). Besides, the “Selectivity Index” value in data set [4] is on record as 5.6. This compound also gave a CC100 in the data set with HeLa [5] greater than 50 µg/mL. Moreover, the figures for the Activity in the data set on Human alphaherpesvirus 1 [6] and with Human alphaherpesvirus 1 [7] were 10 and 12.5 µg/mL, respectively.
Turning to `CC(C)=C1CCC2=C(CC[C@H]3[C@](C)(C=O)CCC[C@]23C)C1`, the MIC result in the data set with Candida parapsilosis, with Pichia kudriavzevii, in the data set with Candida tropicalis, in the data set on Candida albicans, in the data set on Aspergillus flavus and in the data set with Aspergillus fumigatus [1] was “inactive” throughout. Also, the MIC entry in the data set on Aspergillus terreus and in the data set on Aspergillus niger was “inactive” each time. Further, half-maximal cytotoxicity in the data set with HeLa [2] (CC50) was put at 33.4 µg/mL (≈ 117 µM). The compound further displayed a 50% cytotoxic concentration (CC50) at 48 h in data set [3] of 55.3 µg/mL (≈ 193 µM). Besides, in data set [4], the “Selectivity Index” value was found to be 1.6. In the data set with HeLa [5], this compound displayed a CC100 greater than 100 µg/mL. Also, in the data set on Human alphaherpesvirus 1 [6], the result was inactive.
Take `Nc1nc2c(ncn2COCCO)c(=O)[nH]1` [ACYCLOVIR]: the CC100 in the data set with HeLa [5] is greater than 600 µg/mL. Further, the Activity in the data set on Human alphaherpesvirus 1 [6] was found to be 10; with Human alphaherpesvirus 1 [7] it was 6 µg/mL.
`CC[C@]1(O)C[C@H]2CN(CCc3c([nH]c4ccccc34)[C@@](C(=O)OC)(c3cc4c(cc3OC)N(C=O)[C@H]3[C@@](O)(C(=O)OC)[C@H](OC(C)=O)[C@]5(CC)C=CCN6CC[C@]43[C@@H]65)C2)C1` [VINCRISTINE] returned a CC50 with HeLa [2] of 0.05 µg/mL (≈ 0.0606 µM). Moreover, in data set [3], the CC50 at 48 h turned out to be 1.1 µg/mL (≈ 1.33 µM). Moreover, in data set [4], the “Selectivity Index” value stood at 22.
For `CC(C)=C1CCC2=C(CC[C@H]3[C@](C)(C(=O)O)CCC[C@]23C)C1`, the MIC entry with Candida parapsilosis, with Pichia kudriavzevii, with Candida tropicalis, in the data set with Candida albicans, in the data set on Aspergillus flavus and in the data set on Aspergillus fumigatus [1] was “inactive” throughout. In addition, the MIC entry in the data set on Aspergillus terreus and in the data set on Aspergillus niger was “inactive” throughout. Moreover, it took 53.1 µg/mL (≈ 176 µM) to reach half-maximal cytotoxicity with HeLa [2] (CC50). Half-maximal cytotoxicity in data set [3] (CC50 at 48 h) was put at 43.9 µg/mL (≈ 145 µM). In addition, the “Selectivity Index” value in data set [4] is on record as 0.8. Further, the CC100 in the data set on HeLa [5] is greater than 100 µg/mL. In addition, the Activity with Human alphaherpesvirus 1 [6] is 10; in the data set with Human alphaherpesvirus 1 [7] it was 100 µg/mL.
In the case of `COC(=O)[C@]1(C)CCC[C@@]2(C)[C@H]1CC=C1C=C(C(C)C)CC[C@@H]12` [METHYL ABIETATE], the MIC entry in the data set with Candida parapsilosis, in the data set with Pichia kudriavzevii, in the data set with Candida tropicalis, in the data set on Candida albicans, with Aspergillus flavus and in the data set on Aspergillus fumigatus [1] was “inactive” in each case. In addition, the MIC entry with Aspergillus terreus and with Aspergillus niger was “inactive” throughout. Also, the midpoint of cytotoxicity in the data set with HeLa [2], the CC50, lay at 3.6 µg/mL (≈ 11.4 µM). For the same compound, the CC50 at 48 h in data set [3] amounted to 49.4 µg/mL (≈ 156 µM). Besides, in data set [4], the “Selectivity Index” value amounted to 13.7. In the data set with HeLa [5], this compound returned a CC100 of 50 µg/mL. The Activity was found to be 10 in the data set on Human alphaherpesvirus 1 [6] and 6.25 µg/mL with Human alphaherpesvirus 1 [7].
On to `CC(C)C1=CC2=CC[C@@H]3[C@](C)(CCC[C@@]3(C)C(=O)O)[C@H]2CC1` [ABIETIC ACID], for which the MIC entry in the data set on Candida parapsilosis, in the data set on Pichia kudriavzevii, in the data set on Candida tropicalis, in the data set with Candida albicans, with Aspergillus flavus and in the data set on Aspergillus fumigatus [1] was “inactive” each time. For the same compound, the MIC result with Aspergillus terreus and in the data set with Aspergillus niger was “inactive” throughout. This compound also displayed a CC50 in the data set with HeLa [2] of 14.9 µg/mL (≈ 49.3 µM). In [3], this compound displayed a CC50 at 48 h of 52.5 µg/mL (≈ 174 µM). Moreover, in data set [4], the “Selectivity Index” value is reported as 3.5. This compound also registered a CC100 with HeLa [5] greater than 100 µg/mL. For the same compound, the outcome in the data set with Human alphaherpesvirus 1 [6] was inactive.
Take `CC(C)=C1CCC2=C(CC[C@H]3[C@](C)(CO)CCC[C@]23C)C1`: the MIC result in the data set with Candida parapsilosis, in the data set on Pichia kudriavzevii, in the data set on Candida tropicalis, in the data set with Candida albicans, in the data set on Aspergillus flavus and in the data set with Aspergillus fumigatus [1] was “inactive” in each case. Also, the MIC result in the data set on Aspergillus terreus and in the data set on Aspergillus niger was “inactive” each time. This compound gave a CC50 with HeLa [2] of 19.7 µg/mL (≈ 68.3 µM). In [3], half-maximal cytotoxicity (CC50 at 48 h) was put at 20.2 µg/mL (≈ 70 µM). For the same compound, in [4], the “Selectivity Index” value is 1. In the data set with HeLa [5], this compound returned a CC100 of 100 µg/mL. Besides, in the data set with Human alphaherpesvirus 1 [6], the outcome was inactive.
